Starred links: 1 amine or outer side, 2 acyl side, 3 side chain; linkers in the order of their positions; H or OH if unused. Non-standard residues stand in square brackets, D forms with d. Residues, ends and D or L forms follow the SMILES beside them. *: point of attachment. Suc = O=C(CCC(=O)[*:2])[*:1]; MeOSuc = COC(=O)CCC(=O)*; Cbz = O=C(OCc1ccccc1)*; Boc = CC(C)(C)OC(=O)*; CO = O=C([*:1])[*:2]
Experiments:
[1] = molecular target: T1, human leukocyte elastase (HLE) (Homo sapiens, UniProt P08246); assay: Inhibition of human leukocyte elastase acting on a peptide p-nitroanilide substrate, Ki from Dixon plot; type: biochemical; conditions: room temperature; 16.6% (v/v) DMSO, pH 8.1; substrate methoxysuccinyl-alanyl-alanylprolyl-valine-p-nitroanilide 1.6×10^-4 molar; read-out: Ki, dissociation constant of the inhibitor-HLE complex
T1 construct: The HLE enzyme used in these studies may be obtained according to B. R. Viscarello et al. in Preparative Biochemistry, Vol. 13 (1983); from tissue; The enzyme was isolated by a cited preparative procedure. b8 says HLE is released from the granules of polymorphonuclear leukocytes
T1 sequence (P08246 30-267): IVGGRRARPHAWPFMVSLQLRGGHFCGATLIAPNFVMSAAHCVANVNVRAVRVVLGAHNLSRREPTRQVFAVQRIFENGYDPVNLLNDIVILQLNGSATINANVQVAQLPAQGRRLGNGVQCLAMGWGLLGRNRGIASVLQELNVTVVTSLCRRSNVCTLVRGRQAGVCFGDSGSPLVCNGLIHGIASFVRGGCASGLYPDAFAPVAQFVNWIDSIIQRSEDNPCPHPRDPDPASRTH
Description: The potency of compounds of the invention to act as elastase inhibitors was determined by the ability of a compound of the invention to inhibit the action of human leukocyte elastase (HLE) on a low molecular weight peptide substrate. The potency of an inhibitor is evaluated by obtaining a kinetic determination of the dissociation constant, Ki, of the complex formed from the interaction of the inhibitor with HLE. The substrate used was the anilide methoxysuccinyl-alanyl-alanylprolyl-valine-p-nitroanilide as described by K. Nakajima et al. in The Journal of Biological Chemistry, Vol. 254, pages 4027-4032 (1979) and by T. Teshima et al. in The Journal of Biological Chemistry, Vol. 257, No. 9, pages 5085-5091 (1982). The HLE enzyme used in these studies may be obtained according to B. R. Viscarello et al. in Preparative Biochemistry, Vol. 13 (1983).
From HLE enzyme obtained as described in the Viscarello et al reference, a standard rate of production of p-nitroaniline was measured at room temperature spectrophotometrically in the visible spectrum at 410 nanometers, with automatic data acquisition in a Cary 210-Apple III Plus microcomputer system obtained from Varian Associates. Reactions were initiated by injection of a small aliquot (50 or 100 microliters) of a stock solution of the anilide substrate in DMSO into a curvette containing buffer and HLE enzyme. The amount of HLE used is sufficient to produce an initial velocity of about 0.01 OD (optical density) per minute. Final volume was 3.0 ml. Initial velocities of production of p-nitroaniline were determined from linear regression analysis of at least 30 data points (OD410 vs. time) taken during the initial, linear, portion of the reaction. The initial velocity for the HLE sample without any inhibitor being present was obtained and used as a standard for the subsequent determination of the initial velocity of the reaction in the presence of an inhibitor to be tested. The Ki value of a particular inhibitor was determined as follows. To a 3 ml cuvette were added […] of a buffer (9 millimolar sodium phosphate, 10% DMSO (v/v), pH=7.9), 100 microliters of inhibitor solution in DMSO and 20 microliters of HLE stock solution at the same concentration used in the control. After the inhibitor and enzyme solution had equilibrated, the reaction was initiated by the addition of 100 microliters of the stock substrate solution in DMSO. The final solution was 16.6% (v/v) in DMSO, with pH 8.1. The substrate was at an initial concentration of 1.6×10^-4 molar. […]

human leukocyte elastase = molecular target: T2, human leukocyte elastase (Homo sapiens, UniProt P08246); conditions: reported by Szabo et al. 1982, cited from earlier work
T2 sequence (P08246 30-267): T1 sequence (P08246 30-267)

[2] = Pharmacokinetics: serum level of inhibitor after subcutaneous injection; type: in vivo, Male Syrian hamsters; conditions: serum inhibitor concentration vs time
Description: Pharmacokinetics: Male Syrian hamsters (80 to 120) g) are injected subcutaneously with the test compound. Prior to injection and at varying time periods thereafter they are lightly anesthetized with ether and blood samples of approximately 0.2 ml each are withdrawn by cardiac puncture. The blood is expressed into 2 ml centrifuge tubes and allowed to clot for one hr. The sample is then centrifuged and the serum removed. Blood samples are taken before (time 0) and 15, 30, 60, 90 and 120 minutes after subcutaneous administration of the test compound in an appropriate vehicle.
Drug levels are determined by first inactivating endogenous elastase inhibitors by incubation of 50 microliters of serum with an equal volume of buffer containing 5 mg/ml bovine pancreatic trypsin for 5 min. […] After an additional 2 min. incubation, the reaction is started by the addition of substrate (100 microliters) (MeOSuc-Ala-Ala-Pro-Val-pNA, 1.6 mM) and the reaction monitored spectrophotometrically at a wavelength of 410 nm. Serum concentrations of the test compounds are determined by the following equation: [formula] where [I], [E] and [S] are the assay concentrations of inhibitor enzyme and substrate respectively, Ki is the inhibition constant of the inhibitor being assayed, Km is the Michaelis constant of the substrate, Vo is the control uninhibited reaction velocity, and Vi is the inhibited reaction velocity. […]

| Structure (SMILES) | Ki [1] [nM] | activity in animals as measured by the pharmacokinetics test [2] | stronger inhibition than the other four aldehydes (human leukocyte elastase) | Ki (human leukocyte elastase; read-out: Ki (HLE inhibition)) [nM] |
| --- | --- | --- | --- | --- |
| CC(C)[C@@H](C=O)NC(=O)[C@@H]1CCCN1C(=O)[C@@H](Cc1ccccc1)NC(=O)CCC(=O)O [N-succinyl-D-phenylalanyl-L-prolyl-L-valinal] (Suc-[dF]-Pro-Val-aldehyde) |  |  | 10-100 times | 40000 |
| COC(=O)[C@H](CC(C)C)NC(=O)N[C@H](C(=O)N1CCC[C@H]1C(=O)N[C@H](C=O)C(C)C)C(C)C [Example 32g, N-[1(S)-Carbomethoxy-3-methylbutyl]carbamoyl-L-valyl-L-prolyl-L-valinal] ({OMe-Leu-CO}-Val-Pro-Val-aldehyde) | 94 |  |  |  |

The remaining compounds from weak to strong by Ki [1], led by results:

| Ki [1] [nM] | activity in animals as measured by the pharmacokinetics test [2] | Structure (SMILES) | stronger inhibition than the other four aldehydes (human leukocyte elastase) | Ki (human leukocyte elastase; read-out: Ki (HLE inhibition)) [nM] |
| --- | --- | --- | --- | --- |
| 30 | good activity in animals | CC(C)[C@H](NC(=O)[C@H](CCCCNC(=O)OCc1ccccc1)NC(=O)CCC(=O)O)C(=O)N1CCC[C@H]1C(=O)N[C@H](C=O)C(C)C [Example 5b, N-alpha-Succinyl-N-epsilon-benzyloxycarbonyl-L-lysyl-L-valyl-L-prolyl-L-va linal] (Suc-K(Cbz)VPV-aldehyde) |  |  |
| 15 |  | CC(C)[C@H](NC(=O)[C@H](CCCCNC(=O)OCc1ccccc1)NC(=O)OC(C)(C)C)C(=O)N1CCC[C@H]1C(=O)N[C@H](C=O)C(C)C [Example 1f, N-alpha-t-Butyloxycarbonyl-N-epsilon-benzyloxycarbonyl-L-lysyl-L-valyl-L-p rolyl-L-valinal] (Boc-K(Cbz)VPV-aldehyde) |  |  |
| 6 |  | COC(=O)CCC(=O)N[C@@H](CCCCNC(=O)OCc1ccccc1)C(=O)N[C@H](C(=O)N1CCC[C@H]1C(=O)N[C@H](C=O)C(C)C)C(C)C [Example 8b, N-alpha-Methoxysuccinyl-N-epsilon-benzyloxycarbonyl-L-lysyl-L-valyl-L-prol yl-L-valinal] (MeOSuc-K(Cbz)VPV-aldehyde) |  |  |
